ChEMBL document CHEMBL1201862, “PubChem BioAssay data set” (2004)
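Following 48 hours of exposure in 96-well plates, responses at five concentrations were used to interpolate endpoints linearly. GI50 marks 50% less growth.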 Active and inactive are the calls of the source. Cut-off read from the data, not from the text of the source: active = GI50 up to about 1.1 µM and inactive = higher.

What was measured:
Assay in all cases: growth of human tumour cells (NCI), 48 h
A498 = system: A498
HCT-116 = system: HCT-116
HCT-15 = system: HCT-15
Hs-578T = system: Hs-578T
IGROV-1 = system: IGROV-1
MDA-MB-435 = system: MDA-MB-435
NCI/ADR-RES = system: NCI/ADR-RES
SF-539 = system: SF-539
SK-MEL-28 = system: SK-MEL-28
SK-OV-3 = system: SK-OV-3
SNB-19 = system: SNB-19
SNB-75 = system: SNB-75
SW-620 = system: SW-620
T47D = system: T47D
UO-31 = system: UO-31
CAKI-1 = system: CAKI-1
KM12 = system: KM12
Malme-3M = system: Malme-3M
MDA-N = system: MDA-N
SR = system: SR

Compound | GI50 (A498) | GI50 (HCT-116) | GI50 (HCT-15) [µM] | GI50 (Hs-578T) | GI50 (IGROV-1) | GI50 (MDA-MB-435) | GI50 (NCI/ADR-RES) | GI50 (SF-539) | GI50 (SK-MEL-28) | GI50 (SK-OV-3) | GI50 (SNB-19) | GI50 (SNB-75) | GI50 (SW-620) | GI50 (T47D) | GI50 (UO-31) | GI50 (CAKI-1) | GI50 (KM12) | GI50 (Malme-3M) | GI50 (MDA-N) | GI50 (SR)
COc1ccc(/C=C2\N=C(SC)N(C)C2=O)cc1 | 37.8 µM (inactive) | 75.2 µM (inactive) | 64.3 | 22.8 µM (inactive) | 48 µM (inactive) | 51.4 µM (inactive) | 86.9 µM (inactive) | 92 µM (inactive) | > 100 µM (inactive) | 97.9 µM (inactive) | > 100 µM (inactive) | 41.6 µM (inactive) | 80.2 µM (inactive) | 42.6 µM (inactive) | 27 µM (inactive) | – | – | – | – | –
COC1=CC23CCCN2CCc2cc4c(cc2C3C1O)OCO4 (centres undefined) | 59.3 µM (inactive) | 44.5 µM (inactive) | 41.8 | 82 µM (inactive) | 28.8 µM (inactive) | > 100 µM (inactive) | > 100 µM (inactive) | 40.6 µM (inactive) | > 100 µM (inactive) | 27 µM (inactive) | 20.3 µM (inactive) | 78.2 µM (inactive) | 66.1 µM (inactive) | 92.5 µM (inactive) | 48 µM (inactive) | 31.4 µM (inactive) | 47 µM (inactive) | 43 µM (inactive) | – | –
CCN(CC)CCn1ncc2c(N)ncnc21 | > 100 µM (inactive) | > 100 µM (inactive) | > 100 | > 100 µM (inactive) | > 100 µM (inactive) | > 100 µM (inactive) | > 100 µM (inactive) | – | > 100 µM (inactive) | > 100 µM (inactive) | > 100 µM (inactive) | – | > 100 µM (inactive) | > 100 µM (inactive) | > 100 µM (inactive) | > 100 µM (inactive) | > 100 µM (inactive) | > 100 µM (inactive) | > 100 µM (inactive) | –
Cc1c(C)c(C)c(-n2c(=O)n(C)c(=O)n2C(C)(C)C)c(C)c1C | > 100 µM (inactive) | > 100 µM (inactive) | > 100 | > 100 µM (inactive) | – | > 100 µM (inactive) | – | > 100 µM (inactive) | > 100 µM (inactive) | > 100 µM (inactive) | > 100 µM (inactive) | > 100 µM (inactive) | > 100 µM (inactive) | > 100 µM (inactive) | > 100 µM (inactive) | > 100 µM (inactive) | > 100 µM (inactive) | – | > 100 µM (inactive) | 85.9 µM (inactive)
N#Cc1nc(-c2ccsc2)oc1N | > 100 µM (inactive) | > 100 µM (inactive) | > 100 | > 100 µM (inactive) | 71.8 µM (inactive) | > 100 µM (inactive) | – | – | > 100 µM (inactive) | > 100 µM (inactive) | > 100 µM (inactive) | 57 µM (inactive) | > 100 µM (inactive) | – | 64.1 µM (inactive) | > 100 µM (inactive) | > 100 µM (inactive) | – | > 100 µM (inactive) | > 100 µM (inactive)
CCOc1snc(C(Cl)(Cl)Cl)c1Cl | 11.7 µM (inactive) | 17.3 µM (inactive) | 24.2 | 18.9 µM (inactive) | 31 µM (inactive) | 18.3 µM (inactive) | – | 60.5 µM (inactive) | 25.5 µM (inactive) | 28.6 µM (inactive) | 6.75 µM (inactive) | 17.7 µM (inactive) | 30.3 µM (inactive) | – | 5.58 µM (inactive) | 12.3 µM (inactive) | 19.8 µM (inactive) | 22.2 µM (inactive) | 21.9 µM (inactive) | 14 µM (inactive)
COC(=O)C1=CN(C2CCCCC2)C2(c3ccccc3)c3ccccc3C(=O)OC(=O)C12 (centres undefined) | > 100 µM (inactive) | 64.9 µM (inactive) | > 100 | – | > 100 µM (inactive) | 46.5 µM (inactive) | > 100 µM (inactive) | > 100 µM (inactive) | > 100 µM (inactive) | > 100 µM (inactive) | > 100 µM (inactive) | > 100 µM (inactive) | > 100 µM (inactive) | – | > 100 µM (inactive) | 46.8 µM (inactive) | > 100 µM (inactive) | > 100 µM (inactive) | 58.5 µM (inactive) | –
Cc1ccccc1NC(=O)C(=O)Cc1cnc2ccccc2n1 | > 100 µM (inactive) | > 100 µM (inactive) | > 100 | > 100 µM (inactive) | > 100 µM (inactive) | > 100 µM (inactive) | > 100 µM (inactive) | > 100 µM (inactive) | > 100 µM (inactive) | > 100 µM (inactive) | > 100 µM (inactive) | – | > 100 µM (inactive) | > 100 µM (inactive) | > 100 µM (inactive) | > 100 µM (inactive) | > 100 µM (inactive) | > 100 µM (inactive) | > 100 µM (inactive) | –
C[C@]12CCC(=O)C=C1CC[C@@H]1C2CC[C@]2(C)c3nn(-c4ccc(F)cc4)nc3CC12 (some centres undefined) | 49.8 µM (inactive) | > 100 µM (inactive) | – | 64.6 µM (inactive) | > 100 µM (inactive) | > 100 µM (inactive) | – | > 100 µM (inactive) | > 100 µM (inactive) | > 100 µM (inactive) | 43.6 µM (inactive) | 38.1 µM (inactive) | > 100 µM (inactive) | > 100 µM (inactive) | > 100 µM (inactive) | > 100 µM (inactive) | > 100 µM (inactive) | > 100 µM (inactive) | > 100 µM (inactive) | > 100 µM (inactive)
CCN(CC)CCCC(C)NC(=O)c1cc(-c2nccn2C)nc2ccc(C)cc12 (centres undefined) | > 100 µM (inactive) | > 100 µM (inactive) | > 100 | – | > 100 µM (inactive) | > 100 µM (inactive) | > 100 µM (inactive) | > 100 µM (inactive) | > 100 µM (inactive) | – | > 100 µM (inactive) | > 100 µM (inactive) | > 100 µM (inactive) | > 100 µM (inactive) | > 100 µM (inactive) | > 100 µM (inactive) | > 100 µM (inactive) | > 100 µM (inactive) | > 100 µM (inactive) | < 0.01 µM (active)
COc1ccc(-n2c3c(c4cc(O)ccc42)Cc2ccccc2C3=O)cc1 | 90.6 µM (inactive) | 27.6 µM (inactive) | 25.1 | > 100 µM (inactive) | 29.7 µM (inactive) | 64.6 µM (inactive) | 73.8 µM (inactive) | 34.9 µM (inactive) | 28.1 µM (inactive) | 16 µM (inactive) | > 100 µM (inactive) | 2.19 µM (inactive) | 57 µM (inactive) | – | > 100 µM (inactive) | 30.2 µM (inactive) | 28.8 µM (inactive) | > 100 µM (inactive) | 65.6 µM (inactive) | 41.9 µM (inactive)
Clc1nc(NCCc2ccccc2)c2ncn(-c3ccccc3)c2n1 | 17.3 µM (inactive) | 22 µM (inactive) | 25.5 | 24.4 µM (inactive) | 40.8 µM (inactive) | 16.3 µM (inactive) | 20.6 µM (inactive) | – | 33.3 µM (inactive) | 20.4 µM (inactive) | 37 µM (inactive) | 18 µM (inactive) | 29.3 µM (inactive) | 23.4 µM (inactive) | 12.9 µM (inactive) | 7.83 µM (inactive) | 16.8 µM (inactive) | 21.1 µM (inactive) | 18.5 µM (inactive) | –
C=C(C)CCN(C(=O)OC(C)(C)C)c1cc(C(C)C)co1 | > 100 µM (inactive) | 47.9 µM (inactive) | > 100 | – | > 100 µM (inactive) | 96.2 µM (inactive) | 24.2 µM (inactive) | > 100 µM (inactive) | > 100 µM (inactive) | > 100 µM (inactive) | > 100 µM (inactive) | – | 56 µM (inactive) | 24.8 µM (inactive) | > 100 µM (inactive) | > 100 µM (inactive) | 64.3 µM (inactive) | – | 95.7 µM (inactive) | 33.5 µM (inactive)
N=C(N)NCCCC(NC(=O)c1cccc2c(=O)c3ccccc3[nH]c12)C(=O)O (centres undefined) | > 100 µM (inactive) | > 100 µM (inactive) | > 100 | > 100 µM (inactive) | > 100 µM (inactive) | > 100 µM (inactive) | > 100 µM (inactive) | – | > 100 µM (inactive) | > 100 µM (inactive) | > 100 µM (inactive) | > 100 µM (inactive) | > 100 µM (inactive) | – | > 100 µM (inactive) | – | > 100 µM (inactive) | > 100 µM (inactive) | > 100 µM (inactive) | > 100 µM (inactive)
CC(NNC(=O)c1ccc[n+]([BH2-]C#N)c1)c1ccccc1 (centres undefined) | – | > 100 µM (inactive) | > 100 | – | > 100 µM (inactive) | > 100 µM (inactive) | > 100 µM (inactive) | > 100 µM (inactive) | > 100 µM (inactive) | – | > 100 µM (inactive) | > 100 µM (inactive) | > 100 µM (inactive) | > 100 µM (inactive) | > 100 µM (inactive) | > 100 µM (inactive) | > 100 µM (inactive) | > 100 µM (inactive) | > 100 µM (inactive) | –
COc1ccc(/C=C/c2cc(OC)cc(OC)c2)cc1 [TRISMETHOXYRESVERATROL] | 6.18 µM (inactive) | 4.17 µM (inactive) | 4.57 | – | 6.44 µM (inactive) | – | – | 3.54 µM (inactive) | 3.82 µM (inactive) | 4.14 µM (inactive) | 20.7 µM (inactive) | 4.82 µM (inactive) | 4.98 µM (inactive) | – | 18.2 µM (inactive) | 4.6 µM (inactive) | 4.17 µM (inactive) | 6.12 µM (inactive) | – | 4.24 µM (inactive)
